Source: patent US20230128120A1, “OMEGA MURICHOLIC ACID AS A PREGNANE X RECEPTOR LIGAND FOR TREATING HEPATO-INTESTINAL DISEASES” (University of Washington, priority 2021, published 2023)
“Also recorded” adds a separate entry of the source.

How the values were obtained:
Assay type in all cases: cell-based
human PXR = target: T1, human PXR (Homo sapiens, UniProt O75469); test: Reporter assay in LS intestinal cells transfected with human PXR + reporter; conditions: 24 h incubation, dose-response, up to the maximum tested concentration, four cell passages
T1 sequence (O75469 1-434): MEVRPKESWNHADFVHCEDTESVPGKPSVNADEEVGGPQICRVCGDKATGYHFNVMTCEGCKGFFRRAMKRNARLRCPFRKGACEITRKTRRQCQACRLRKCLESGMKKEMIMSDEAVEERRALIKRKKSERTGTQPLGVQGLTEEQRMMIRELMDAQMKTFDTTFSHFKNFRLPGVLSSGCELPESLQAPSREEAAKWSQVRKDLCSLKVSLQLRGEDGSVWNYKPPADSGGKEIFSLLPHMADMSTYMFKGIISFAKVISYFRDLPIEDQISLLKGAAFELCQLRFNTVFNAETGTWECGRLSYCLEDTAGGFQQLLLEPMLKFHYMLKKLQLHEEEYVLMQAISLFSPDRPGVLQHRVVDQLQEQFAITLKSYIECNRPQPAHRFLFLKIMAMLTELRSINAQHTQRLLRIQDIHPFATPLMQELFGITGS
Description: Reporter assay was performed using LS intestinal cells transfected with human PXR + reporter. Incubation time was 24 h and a dose-response curve was plotted. Results were confirmed using four different cells passages.
Percent displacement of reporter from human PXR as a function of MDCA concentration was evaluated and the results are shown in FIG. 9.
A reporter assay was performed using LS intestinal cells transfected with human PXR + reporter. Incubation time was 24 h and a dose-response curve was plotted. Results were confirmed using four different cells passages.

mouse PXR (mPXR) = target: T2, mouse PXR (mPXR) (Mus musculus, UniProt O54915); test: Luciferase reporter assay with mouse PXR (mPXR) plasmid; conditions: in vitro at 1 µM and 10 µM
T2 construct: expressed in transfected cells
T2 sequence (O54915 1-431): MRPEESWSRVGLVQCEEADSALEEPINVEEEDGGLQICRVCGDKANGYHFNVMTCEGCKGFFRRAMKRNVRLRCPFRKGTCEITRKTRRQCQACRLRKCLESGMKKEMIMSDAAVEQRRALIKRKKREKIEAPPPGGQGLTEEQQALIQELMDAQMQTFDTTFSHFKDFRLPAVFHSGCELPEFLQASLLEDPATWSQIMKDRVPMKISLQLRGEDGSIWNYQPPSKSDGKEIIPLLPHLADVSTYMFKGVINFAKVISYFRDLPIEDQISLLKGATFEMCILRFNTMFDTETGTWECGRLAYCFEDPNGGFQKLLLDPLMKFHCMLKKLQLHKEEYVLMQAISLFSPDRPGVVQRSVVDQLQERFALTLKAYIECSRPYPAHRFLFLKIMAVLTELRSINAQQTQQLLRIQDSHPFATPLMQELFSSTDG
From the text: (§1) Data are expressed as average of relative luciferase units among the technical triplicates ± S.E. Asterisks (*) represent statistically significant difference as compared to the vehicle group (one-way ANOVA followed by Duncan’s post hoc test, p < 0.05).
(§2) The prototypical mPXR ligand pregnenolone 16α-carbonitrile (PCN) was used as a positive control (FIG. 4B right panel). […] The prototypical hPXR ligand rifampicin (Rif) was used as a positive control (FIG. 4B left panel).

human PXR (hPXR) = target: T3, human PXR (hPXR) (Homo sapiens, UniProt O75469); test: Luciferase reporter assay with human PXR (hPXR) plasmid; conditions: in vitro at 5 µM
T3 construct: expressed in transfected cells
T3 sequence (O75469 1-434): T1 sequence (O75469 1-434)
From the text: as §1, §2

SMILES | binding affinity towards PXR (percent displacement of reporter from human PXR) (human PXR; listed as MDCA) | mPXR activation (relative luciferase units vs vehicle) (mouse PXR (mPXR)) | hPXR activation (relative luciferase units vs vehicle) (human PXR (hPXR)) | binding affinity towards PXR (percent displacement of reporter from human PXR) (human PXR)
C[C@H](CCC(=O)O)[C@H]1CC[C@H]2[C@@H]3C[C@H](O)[C@@H]4C[C@H](O)CC[C@]4(C)[C@H]3CC[C@]12C [murideoxycholic acid] | no binding affinity; also recorded: totally inactive | – | – | –
C[C@H](CCC(=O)O)[C@H]1CC[C@H]2[C@@H]3[C@@H](O)[C@H](O)[C@@H]4C[C@H](O)CC[C@]4(C)[C@H]3CC[C@]12C [omega muricholic acid, ω-muricholic acid] | – | activated | weakly activated | effective binding
